Like-named read-outs stand apart in the source and are kept apart here.

One data set relates to HSV-2. In words: activity selectivity assay, HSV-2 infected Vero cells. It is filed as cell-based. Here is the method: (§1) HSV (HSV-1 Walki, HSV-1F, HSV-2 MS, HSV clinical isolates and HSV resistant strains) was cultivated on Vero cells (ATCC CCL-81) under the following conditions: The cells were grown in M199 medium (5% foetal calf serum, 2 mM glutamine, 100 IU/mL penicillin, 100 μg/mL streptomycin) in cell culture bottles at 37° C. and 5% CO2. The cells were splitted twice per week (1:4). For the infection, the medium was removed, the cells were washed with Hank's solution, detached using 0.05% trypsin, 0.02% EDTA and incubacted at a density of 4×10^5 cells/mL under the above-mentioned conditions for 24 h. The medium was removed and the virus solution was added at an m.o.i of <0.05 in a volume of 2 mL per 175 cm^2 surface. The infected cells were incubated at 37° C., 5% CO2 for 1 h and then the medium was made up to a volume of 50 mL per 175 cm^2 bottle. […] The virus was released by freezing (−80° C.) and thwawing (37° C.) the infected cultures twice. Cell debris was removed by centrifugation (300 g, 10 min, 4° C.) and the supernatant was frozen in aliquots at −80° C.
(§2) The virus titre was determined using a plaque assay. To this end, Vero cells were seeded in 24-well plates at a density of 4×10^5 cells per well and, after 24 h of incubation (37° C., 5% CO2) infected with 100 μL of inoculum (dilutions (10^−2 to 10^−12) of the virus stock). 1 h after the infection, the medium was removed and the cells were covered with 1 mL of overlay medium (0.5% methylcellulose, 0.22% sodium bicarbonate, 2 mM glutamine, 100 IU/mL penicillin, 100 μg/mL streptomycin, 5% foetal calf serum in MEM-Eagle medium with Earl's salt) and incubated for 3 d in a cell incubator at (37° C., 5% CO2). The cells were then fixated using 4% formaline for 1 h, washed with water, stained with Giemsa for 30 min and then washed and dried. Using a plaque viewer, the virus titre was determined.
(§3) The antiviral action was determined using a patented (DE10235967 and WO2004/015416) and subsequently published activity selectivity assay (G. Kleymann et al. J. Biomol. Screen. 2004; 9, 578) in 96- or 384-well mictrotitre plates using various cell lines of neuronal, lymphoid and epithelial origin, such as, for example, Vero (african green monkey kidney cells), MEF (murine embryonal fibroblasts), HELF (human embryonal fibroblasts), NT2 (human neuronal cell line) or Jurkat (human lymphoid T-cell line). The relevant experimental details of the above mentioned patent and publication to evaluate the antiviral activity of the invention (disclosed compounds) are described below.
(§4) The effect of the substances on the spreading of the cytopathogenic effect was determined in comparision to the reference compound acyclovir-sodium (Zovirax™), a clinically approved anti-herpes chemotherapeutic.
(§5) The compounds (50 mM stock solution dissolved in DMSO) are examined on microtitre plates (for example 96-well flat bottom cell culture plates) at a final concentration of 250 to 0.5 μM or, in case of potent antiviral compounds, 250 to 0.5 nM in 2 to 4 replications (4 to 2 substances per plate). Also examined are toxic and cytostatic effects or precipitation of the compounds. […]

A further data set deals with HSV-1 ACV resistant. In words: activity selectivity assay, HSV-1 ACV resistant. It is filed as cell-based. Here is the method: as §1, §2, §3, §4, §5
The subject of a further data set is HSV-1. In words: activity selectivity assay, HSV-1 infected Vero cells. It is filed as cell-based. Here is the method:
as §1, §2, §3, §4, §5

Another data set concerns the target Human Carboanhydrase II (Homo sapiens, UniProt P00918). In words: carbonic anhydrase activity assay (pH indicator method). To be noted: for carbonic anhydrase inhibition: result in words. It is filed as biochemical.
The nature of a further data set: in vivo. Set-up: species or system mice strain C57BL/6J. The following applies: male, C57BL/6J, mouse, po, 10 mg/kg. On the procedure: Pharmcokinetic parameters were determined for Example 7, 7(−), 7(+) and 7c in male mice strain C57BL/6J at an intraveneous (i.v.) dose of 5 mg/kg (5% DMSO in heterologous plasma, 2.5 mL/kg) and an oral dose (p.o) of 10 mg/kg (DMSO/0.5% HPMC (5:95), 5 mL/kg).

Turning to `CN(C(=O)Cc1ccc(-c2cc(F)ccc2F)cc1)c1nc(CO)c([S@](C)(=N)=O)s1` (single isomer, unassigned) [Example 10b, 2-(2′,5′-Difluoro-[1,1′-biphenyl]-4-yl)-N-(4-(hydroxymethyl)-5-(S-methylsulfonimidoyl)thiazol-2-yl)-N-methylacetamide], the IC50 in the data set with HSV-2 (Human alphaherpesvirus 2) is 5 to 25 µM; in the data set on HSV-1 ACV resistant (Human alphaherpesvirus 1) it was 1 to 5 µM; in the data set on HSV-1 (Human alphaherpesvirus 1) it was 1 to 5 µM.

Take `Cc1nc(N(C)C(=O)Cc2ccc(-c3cc(F)ccc3F)cc2)sc1S(=N)(=O)C1CC1` (stereo not shown) [Example 7a, N-[5-(Cyclopropylsulfonimidoyl)-4-methyl-thiazol-2-yl]-2-[4-(2,5-difluorophenyl)phenyl]-N-methyl-acetamide]: the IC50 in the data set with HSV-2 (Human alphaherpesvirus 2) lay within 0.05 to 0.5 µM; with HSV-1 ACV resistant (Human alphaherpesvirus 1), 0.03 to 0.1 µM; in the data set on HSV-1 (Human alphaherpesvirus 1), 0.03 to 0.1 µM.

`Cc1nc(N(C)C(=O)Cc2ccc(-c3ccccn3)cc2)sc1[S@@](=N)(=O)C1CC1` (single isomer, unassigned) [Example 7b(−), (−)-N-(5-(Cyclopropanesulfonimidoyl)-4-methylthiazol-2-yl)-N-methyl-2-(4-(pyridin-2-yl)phenyl)acetamide]: the figures for the IC50 with HSV-2 (Human alphaherpesvirus 2), in the data set with HSV-1 ACV resistant (Human alphaherpesvirus 1) and with HSV-1 (Human alphaherpesvirus 1) were 0.2 to 0.75 µM, 0.075 to 0.25 µM and 0.075 to 0.25 µM, respectively.

`Cc1nc(N(C)C(=O)Cc2ccc(-c3cc(F)ccc3F)cc2)sc1[S@](C)(=N)=O` [Example 7(+), (+)-(R)-2-(2′,5′-Difluoro-[1,1′-biphenyl]-4-yl)-N-methyl-N-(4-methyl-5-(S-methylsulfonimidoyl)thiazol-2-yl)acetamide]: the IC50 at Human Carboanhydrase II is over 10 µM; in the data set on HSV-2 (Human alphaherpesvirus 2) it was 0.03 to 0.2 µM; in the data set on HSV-1 ACV resistant (Human alphaherpesvirus 1) it was 0.03 to 0.2 µM; in the data set on HSV-1 (Human alphaherpesvirus 1), 0.03 to 0.2 µM. The carbonic anhydrase inhibition result at Human Carboanhydrase II is listed as “no or significantly reduced carbonic anhydrase inhibition”.

Regarding `Cc1nc(N(C)C(=O)Cc2ccc(-c3cc(F)ccc3F)cc2)sc1[S@@](=N)(=O)C1CC1` (single isomer, unassigned) [Example 7a(−), (−)-N-(5-(Cyclopropanesulfonimidoyl)-4-methylthiazol-2-yl)-2-(2′,5′-difluoro-[1,1′-biphenyl]-4-yl)-N-methylacetamide], the IC50 was 0.03 to 0.3 µM in the data set with HSV-2 (Human alphaherpesvirus 2), 0.02 to 0.05 µM in the data set on HSV-1 ACV resistant (Human alphaherpesvirus 1) and 0.02 to 0.05 µM in the data set with HSV-1 (Human alphaherpesvirus 1).

For `Nc1nc2c(ncn2COCCO)c(=O)[nH]1` [Acyclovir, reference compound], the IC50 in the data set on HSV-2 was 0.5 to 3 µM; with HSV-1 ACV resistant (HSV-1 ACV resistant) it was over 25 µM; in the data set on HSV-1, 0.5 to 3 µM.

Consider `Cc1nc(N(C)C(=O)Cc2ccc(-c3ccccn3)cc2)sc1[S@](C)(=N)=O` (single isomer, unassigned) [Example 7c(+), (+)-N-Methyl-N-(4-methyl-5-(S-methylsulfonimidoyl)thiazol-2-yl)-2-(4-(pyridin-2-yl)phenyl)acetamide], for which the AUC in “in vivo” amounted to 31.2 µg·h/mL. Moreover, the highest level in “in vivo” (Cmax) was 5.7 µg/mL. The IC50 against Human Carboanhydrase II was over 10 µM; with HSV-2 (Human alphaherpesvirus 2), 0.5 to 1.5 µM; in the data set on HSV-1 ACV resistant (Human alphaherpesvirus 1), 0.3 to 0.75 µM; with HSV-1 (Human alphaherpesvirus 1) it was 0.3 to 0.75 µM. Moreover, the carbonic anhydrase inhibition result on Human Carboanhydrase II is “no or significantly reduced carbonic anhydrase inhibition”.

With `Cc1nc(N(C)C(=O)Cc2ccc(-c3ccccn3)cc2)sc1[S@](C)(=N)=O` (stereo in doubt) [Example 7c, N-Methyl-N-[4-methyl-5-(methylsulfonimidoyl)thiazol-2-yl]-2-[4-(2-pyridyl)phenyl]acetamide], the carbonic anhydrase inhibition result at Human Carboanhydrase II is given as “no or significantly reduced carbonic anhydrase inhibition”.

As for `CC(=O)N=[S@](C)(=O)c1sc(N(C)C(=O)Cc2ccc(-c3cc(F)ccc3F)cc2)nc1C` [Example 8, (R)-N-(5-(N-Acetyl-S-methylsulfonimidoyl)-4-methylthiazol-2-yl)-2-(2′,5′-difluoro-[1,1′-biphenyl]-4-yl)-N-methylacetamide], the IC50 is 50 to 250 µM with HSV-2 (Human alphaherpesvirus 2), 10 to 50 µM with HSV-1 ACV resistant (Human alphaherpesvirus 1) and 10 to 50 µM in the data set on HSV-1 (Human alphaherpesvirus 1).

Turning to `Cc1nc(N(C)C(=O)Cc2ccc(-c3ccccn3)cc2)sc1[S@](=N)(=O)C1CC1` (single isomer, unassigned) [Example 7b(+), (+)-N-(5-(Cyclopropanesulfonimidoyl)-4-methylthiazol-2-yl)-N-methyl-2-(4-(pyridin-2-yl)phenyl)acetamide], the IC50 in the data set on HSV-2 (Human alphaherpesvirus 2) lay within 2 to 8 µM; with HSV-1 ACV resistant (Human alphaherpesvirus 1) it was 0.5 to 1.5 µM; with HSV-1 (Human alphaherpesvirus 1), 0.5 to 1.5 µM.

For `Cc1nc(N(C)C(=O)Cc2ccc(-c3ccccn3)cc2)sc1S(=N)(=O)C1CC1` (racemic) [Example 7b, N-[5-(Cyclopropylsulfonimidoyl)-4-methyl-thiazol-2-yl]-N-methyl-2-[4-(2-pyridyl)phenyl]acetamide], the half-maximal inhibitory concentration (IC50) at Human Carboanhydrase II was over 10 µM; with HSV-2 (Human alphaherpesvirus 2), 0.25 to 1 µM; in the data set on HSV-1 ACV resistant (Human alphaherpesvirus 1), 0.1 to 0.4 µM; in the data set on HSV-1 (Human alphaherpesvirus 1) it was 0.1 to 0.4 µM. For the same compound, at Human Carboanhydrase II, the carbonic anhydrase inhibition result is listed as “no or significantly reduced carbonic anhydrase inhibition”.

With `Cc1nc(N(C)C(=O)Cc2ccc(-c3ccccn3)cc2)sc1[S@](C)(=N)=O` (racemic) [Example 7c, N-Methyl-N-[4-methyl-5-(methylsulfonimidoyl)thiazol-2-yl]-2-[4-(2-pyridyl)phenyl]acetamide], in “in vivo”, the AUC is 22.5 µg·h/mL. In addition, the highest level in “in vivo” (Cmax) was 4.29 µg/mL. Besides, the IC50 is over 10 µM on Human Carboanhydrase II, 0.2 to 1.5 µM with HSV-2 (Human alphaherpesvirus 2), 0.15 to 0.6 µM in the data set with HSV-1 ACV resistant (Human alphaherpesvirus 1) and 0.15 to 0.6 µM in the data set with HSV-1 (Human alphaherpesvirus 1).

`Cc1nc(N(C)C(=O)Cc2ccc(-c3cc(F)ccc3F)cc2)sc1[S@](=N)(=O)C1CC1` (single isomer, unassigned) [Example 7a(+), (+)-N-(5-(Cyclopropanesulfonimidoyl)-4-methylthiazol-2-yl)-2-(2′,5′-difluoro-[1,1′-biphenyl]-4-yl)-N-methylacetamide]: the results for the IC50 with HSV-2 (Human alphaherpesvirus 2), with HSV-1 ACV resistant (Human alphaherpesvirus 1) and in the data set with HSV-1 (Human alphaherpesvirus 1) were 0.5 to 2 µM, 0.25 to 0.75 µM and 0.25 to 0.75 µM, respectively.

In the data set “in vivo”, `Cc1nc(N(C)C(=O)Cc2ccc(-c3ccccn3)cc2)sc1[S@@](C)(=N)=O` (single isomer, unassigned) [Example 7c(−), (−)-N-Methyl-N-(4-methyl-5-(S-methylsulfonimidoyl)thiazol-2-yl)-2-(4-(pyridin-2-yl)phenyl)acetamide] gave an AUC of 38 µg·h/mL. In the data set “in vivo”, the concentration peaked (Cmax) at 6.65 µg/mL. Moreover, the half-maximal inhibitory concentration (IC50) was over 10 µM against Human Carboanhydrase II, 0.1 to 0.75 µM in the data set with HSV-2 (Human alphaherpesvirus 2), 0.075 to 0.3 µM in the data set on HSV-1 ACV resistant (Human alphaherpesvirus 1) and 0.075 to 0.3 µM with HSV-1 (Human alphaherpesvirus 1). In addition, the carbonic anhydrase inhibition entry at Human Carboanhydrase II was “no or significantly reduced carbonic anhydrase inhibition”.

Turning to `CN(C(=O)Cc1ccc(-c2cc(F)ccc2F)cc1)c1nc(CO)c([S@@](C)(=N)=O)s1` (single isomer, unassigned) [Example 10a, 2-(2′,5′-Difluoro-[1,1′-biphenyl]-4-yl)-N-(4-(hydroxymethyl)-5-(S-methylsulfonimidoyl)thiazol-2-yl)-N-methylacetamide], the 50% inhibitory concentration (IC50) was in the range of 1 to 5 µM in the data set on HSV-2 (Human alphaherpesvirus 2), 0.05 to 0.25 µM with HSV-1 ACV resistant (Human alphaherpesvirus 1) and 0.05 to 0.25 µM with HSV-1 (Human alphaherpesvirus 1).

A word on the IC50: it is the concentration at which inhibition is half-maximal. The low end stands for inhibition by little substance, the high end for a need for much substance. Broadly, the AUC is concentration integrated over time. A high value points to more exposure. By Cmax is commonly meant the highest concentration seen after dosing.

The values are drawn from patent US11278534B2, “Enantiomers of substituted thiazoles as antiviral compounds” (Innovative Molecules GmbH, priority 2017, dated 2022).
